Test results: patent publication US9018208B2, “Heterocycles as potassium channel modulators” (Icagen Inc., priority 2007, dated 2015)

Tested on: SH-SY5Y M-currents (KCNQ2, KCNQ3 and KCNQ5)
Assay: SH-SY5Y native cell line FLIPR assay (voltage-sensitive dye DiBAC)
Type: cell-based, mouse neuroblastoma, rat glioma hybrid cell line
Settings: SH-SY5Y native cell line, FLIPR assay (Table 3); read-out: SH-SY5Y EC50
Procedure, shortened: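 Response is peak DiBAC fluorescence change, normalised to the maximum from a positive control agent, sampled every 30 s over 25 min. Before compound addition, SH-SY5Y cells differentiated with PGE1 plus isomethylbutylxanthine were dye-loaded for 1 h in EBSS with […] DiBAC.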

| SMILES | EC50 [µM] |
| --- | --- |
| O=C(Cc1ccc(F)cc1)Nc1nc2ccc(F)cn2c1-c1nc2ccccc2s1 [Compound 379, N-(3-(benzo[d]thiazol-2-yl)-6-fluoroimidazo[1,2-a]pyridin-2-yl)-2-(4-fluorophenyl)acetamide] | 0.5 to 3 |
| O=C(CC1CCCC1)Nc1nc2ccc(F)cn2c1-c1nc2ccccc2s1 [Compound 380, N-(3-(benzo[d]thiazol-2-yl)-6-fluoroimidazo[1,2-a]pyridin-2-yl)-2-cyclopentylacetamide] | 0.5 to 3 |
| O=C(CC(F)(F)F)Nc1nc2ccc(F)cn2c1-c1nc2ccccc2s1 [Compound 381, N-(3-(benzo[d]thiazol-2-yl)-6-fluoroimidazo[1,2-a]pyridin-2-yl)-3,3,3-trifluoropropanamide] | 0.5 to 3 |
| Cc1ccc2nc(NC(=O)CC(C)(C)C)c(-c3nc4ccccc4s3)n2n1 [Compound 382, N-(3-(benzo[d]thiazol-2-yl)-6-methylimidazo[1,2-b]pyridazin-2-yl)-3,3-dimethylbutanamide] | 3 to 10 |
| CC(CC(=O)Nc1nc2ccc(F)cn2c1-c1nccs1)C(F)(F)F (stereo not drawn) [Compound 383, 4,4,4-trifluoro-N-(6-fluoro-3-(thiazol-2-yl)imidazo[1,2-a]pyridin-2-yl)-3-methylbutanamide] | 3 to 10 |
| O=C(Cc1ccc(F)cc1)Nc1nc2ccc(F)cn2c1-c1nccs1 [Compound 384, N-(6-fluoro-3-(thiazol-2-yl)imidazo[1,2-a]pyridin-2-yl)-2-(4-fluorophenyl)acetamide] | 0.5 to 3 |
| Cc1ccc2nc(NC(=O)Cc3ccc(F)cc3)c(-c3nc4ccccc4s3)n2n1 [Compound 385, N-(3-(benzo[d]thiazol-2-yl)-6-methylimidazo[1,2-b]pyridazin-2-yl)-2-(4-fluorophenyl)acetamide] | 3 to 10 |
| Cc1ccc2nc(NC(=O)CC(C)C(F)(F)F)c(-c3nc4ccccc4s3)n2n1 (stereo not drawn) [Compound 386, N-(3-(benzo[d]thiazol-2-yl)-6-methylimidazo[1,2-b]pyridazin-2-yl)-4,4,4-trifluoro-3-methylbutanamide] | 3 to 10 |
| Cc1ccc2nc(NC(=O)CC(C)(C)C)c(-c3nccs3)n2n1 [Compound 387, 3,3-dimethyl-N-(6-methyl-3-(thiazol-2-yl)imidazo[1,2-b]pyridazin-2-yl)butanamide] | 3 to 10 |
| Cc1ccc2nc(NC(=O)CC(C)C(F)(F)F)c(-c3nccs3)n2n1 (stereo not drawn) [Compound 388, 4,4,4-trifluoro-3-methyl-N-(6-methyl-3-(thiazol-2-yl)imidazo[1,2-b]pyridazin-2-yl)butan amide] | 3 to 10 |
| Cc1ccc2nc(NC(=O)C3CCC(F)(F)CC3)c(-c3nccs3)n2n1 [Compound 389, 4,4-difluoro-N-(6-methyl-3-(thiazol-2-yl)imidazo[1,2-b]pyridazin-2-yl)cyclohexanecarboxamide] | 3 to 10 |
| Cc1ccc2nc(NC(=O)Cc3ccc(F)cc3)c(-c3nccs3)n2n1 [Compound 390, 2-(4-fluorophenyl)-N-(6-methyl-3-(thiazol-2-yl)imidazo[1,2-b]pyridazin-2-yl)acetamide] | 3 to 10 |
| O=C(Nc1nc2ccc(F)cn2c1-c1nccs1)C1CCC(F)(F)CC1 [Compound 391, 4,4-difluoro-N-(6-fluoro-3-(thiazol-2-yl)imidazo[1,2-a]pyridin-2-yl)cyclohexanecarboxamide] | < 0.5 |
| Cc1cccc2nc(NC(=O)CC(C)(C)C)c(-c3nc4ccccc4s3)n12 [Compound 392, N-(3-(benzo[d]thiazol-2-yl)-5-methylimidazo[1,2-a]pyridin-2-yl)-3,3-dimethylbutanamide] | 3 to 10 |
| Cc1cccc2nc(NC(=O)Cc3ccc(F)cc3)c(-c3nc4ccccc4s3)n12 [Compound 393, N-(3-(benzo[d]thiazol-2-yl)-5-methylimidazo[1,2-a]pyridin-2-yl)-2-(4-fluorophenyl)acetamide] | 0.5 to 3 |
| Cc1ccc2nc(NC(=O)CC(C)(C)C)c(-c3cc(C(F)(F)F)ccn3)n2n1 [Compound 394, 3,3-dimethyl-N-(6-methyl-3-(4-(trifluoromethyl)pyridin-2-yl)imidazo[1,2-b]pyridazin-2-yl)butanamide] | 3 to 10 |
| Cc1ccc2nc(NC(=O)Cc3ccc(F)cc3)c(-c3cc(C(F)(F)F)ccn3)n2n1 [Compound 395, 2-(4-fluorophenyl)-N-(6-methyl-3-(4-(trifluoromethyl)pyridin-2-yl)imidazo[1,2-b]pyridazin-2-yl)acetamide] | 3 to 10 |
| Cc1ccc2nc(NC(=O)CC(C)C(F)(F)F)c(-c3cc(C(F)(F)F)ccn3)n2n1 (stereo not drawn) [Compound 396, 4,4,4-trifluoro-3-methyl-N-(6-methyl-3-(4-(trifluoromethyl)pyridin-2-yl)imidazo[1,2-b]pyridazin-2-yl)butanamide] | 3 to 10 |
| Cc1ccc2nc(NC(=O)C3CCC(F)(F)CC3)c(-c3cc(C(F)(F)F)ccn3)n2n1 [Compound 397, 4,4-difluoro-N-(6-methyl-3-(4-(trifluoromethyl)pyridin-2-yl)imidazo[1,2-b]pyridazin-2-yl)cyclohexanecarboxamide] | 3 to 10 |

| SMILES | EC50 [µM] |
| --- | --- |
| CC(C)(C)CC(=O)Nc1nc2ccc(C(F)(F)F)cn2c1-c1cc(C(F)(F)F)ccn1 [Compound 398, 3,3-dimethyl-N-(6-(trifluoromethyl)-3-(4-(trifluoromethyl)pyridin-2-yl)imidazo[1,2-a]pyridin-2-yl)butanamide] | < 0.5 |
| CC(CC(=O)Nc1nc2ccc(C(F)(F)F)cn2c1-c1cc(C(F)(F)F)ccn1)C(F)(F)F (stereo not drawn) [Compound 399, 4,4,4-trifluoro-3-methyl-N-(6-(trifluoromethyl)-3-(4-(trifluoromethyl)pyridin-2-yl)imidazo[1,2-a]pyridin-2-yl)butanamide] | 0.5 to 3 |
| O=C(Cc1ccc(F)cc1)Nc1nc2ccc(C(F)(F)F)cn2c1-c1cc(C(F)(F)F)ccn1 [Compound 400, 2-(4-fluorophenyl)-N-(6-(trifluoromethyl)-3-(4-(trifluoromethyl)pyridin-2-yl)imidazo[1,2-a]pyridin-2-yl)acetamide] | < 0.5 |
| CC(CC(=O)Nc1nc2ccc(F)cn2c1-c1cc(C(F)(F)F)ccn1)C(F)(F)F (stereo not drawn) [Compound 401, 4,4,4-trifluoro-N-(6-fluoro-3-(4-(trifluoromethyl)pyridin-2-yl)imidazo[1,2-a]pyridin-2-yl)-3-methylbutanamide] | 0.5 to 3 |
| O=C(Nc1nc2ccc(F)cn2c1-c1cc(C(F)(F)F)ccn1)C1CCC(F)(F)CC1 [Compound 402, 4,4-difluoro-N-(6-fluoro-3-(4-(trifluoromethyl)pyridin-2-yl)imidazo[1,2-a]pyridin-2-yl)cyclohexanecarboxamide] | < 0.5 |
| O=C(Cc1ccc(F)cc1)Nc1nc2ccccn2c1-c1cc(C(F)(F)F)ccn1 [Compound 403, 2-(4-fluorophenyl)-N-(3-(4-(trifluoromethyl)pyridin-2-yl)imidazo[1,2-a]pyridin-2-yl)acetamide] | < 0.5 |
| CC(C)(C)CC(=O)Nc1nc2ccccn2c1-c1cc(C(F)(F)F)ccn1 [Compound 404, 3,3-dimethyl-N-(3-(4-(trifluoromethyl)pyridin-2-yl)imidazo[1,2-a]pyridin-2-yl)butanamide] | 0.5 to 3 |
| CC(CC(=O)Nc1nc2ccccn2c1-c1cc(C(F)(F)F)ccn1)C(F)(F)F (stereo not drawn) [Compound 405, 4,4,4-trifluoro-3-methyl-N-(3-(4-(trifluoromethyl)pyridin-2-yl)imidazo[1,2-a]pyridin-2-yl)butanamide] | 0.5 to 3 |
| CC(C)(C)CC(=O)Nc1nc2ccccn2c1-c1nccs1 [Compound 406, 3,3-dimethyl-N-(3-(thiazol-2-yl)imidazo[1,2-a]pyridin-2-yl)butanamide] | 0.5 to 3 |
| O=C(Cc1ccc(F)cc1)Nc1nc2ccccn2c1-c1nccs1 [Compound 407, 2-(4-fluorophenyl)-N-(3-(thiazol-2-yl)imidazo[1,2-a]pyridin-2-yl)acetamide] | 0.5 to 3 |
| CC(CC(=O)Nc1nc2ccccn2c1-c1nccs1)C(F)(F)F (stereo not drawn) [Compound 408, 4,4,4-trifluoro-3-methyl-N-(3-(thiazol-2-yl)imidazo[1,2-a]pyridin-2-yl)butanamide] | 3 to 10 |
| O=C(Nc1nc2ccccn2c1-c1nccs1)C1CCC(F)(F)CC1 [Compound 409, 4,4-difluoro-N-(3-(thiazol-2-yl)imidazo[1,2-a]pyridin-2-yl)cyclohexanecarboxamide] | 0.5 to 3 |
| O=C(Cc1ccc(F)cc1)Nc1nc2ccc(F)cn2c1-c1cc(C(F)(F)F)ccn1 [Compound 410, N-(6-fluoro-3-(4-(trifluoromethyl)pyridin-2-yl)imidazo[1,2-a]pyridin-2-yl)-2-(4-fluorophenyl)acetamide] | < 0.5 |
| O=C(Nc1nc2ccccn2c1-c1cc(C(F)(F)F)ccn1)C1CCC(F)(F)CC1 [Compound 411, 4,4-difluoro-N-(3-(4-(trifluoromethyl)pyridin-2-yl)imidazo[1,2-a]pyridin-2-yl)cyclohexanecarboxamide] | < 0.5 |
| O=C(Nc1nc2ccc(F)cn2c1-c1cc(C(F)(F)F)ccn1)C1CC1(F)F (stereo not drawn) [Compound 412, 2,2-difluoro-N-(6-fluoro-3-(4-(trifluoromethyl)pyridin-2-yl)imidazo[1,2-a]pyridin-2-yl)cyclopropanecarboxamide] | 3 to 10 |
| O=C(Nc1nc2ccccn2c1-c1cc(C(F)(F)F)ccn1)C1CC1(F)F (stereo not drawn) [Compound 413, 2,2-difluoro-N-(3-(4-(trifluoromethyl)pyridin-2-yl)imidazo[1,2-a]pyridin-2-yl)cyclopropanecarboxamide] | 0.5 to 3 |
| CC(C)(C)CC(=O)Nc1nc2ccccn2c1-c1cscn1 [Compound 414, 3,3-dimethyl-N-(3-(thiazol-4-yl)imidazo[1,2-a]pyridin-2-yl)butanamide] | 3 to 10 |
| COc1ccc2nc(NC(=O)CC(C)(C)C)c(-c3nccs3)n2n1 [Compound 415, N-(6-methoxy-3-(thiazol-2-yl)imidazo[1,2-b]pyridazin-2-yl)-3,3-dimethylbutanamide] | 3 to 10 |
| Cc1nc(-c2c(NC(=O)CC(C)(C)C)nc3ccccn23)cs1 [Compound 416, 3,3-dimethyl-N-(3-(2-methylthiazol-4-yl)imidazo[1,2-a]pyridin-2-yl)butanamide] | 3 to 10 |

Same assay, conditions: read-out: SH-SY5Y_EC50

| SMILES | EC50 [µM] |
| --- | --- |
| O=C(CC(F)(F)F)Nc1nc2ccc(F)cn2c1-c1nc2ccccc2s1 [Compound 381, N-(3-(benzo[d]thiazol-2-yl)-6-fluoroimidazo[1,2-a]pyridin-2-yl)-3,3,3-trifluoropropanamide] | 2.13 |
